Assays:
Format in all cases: cell-based
PfCRT^Dd2 [1] = biological target: T1, PfCRT^Dd2 (Plasmodium falciparum, UniProt Q9N623, A220S/I356T/K76T/M74I/N326S/N75E/Q271E/R371I); assay: [3H]CQ uptake into Xenopus oocytes, cis-inhibition by unlabelled solute; conditions: PfCRTDd2 oocytes, background [3H]CQ accumulation subtracted, normalised to oocyte type control
Summary of the method: (§1)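 Washed oocytes (ten per treatment) were exposed to label in pH 5.5 ND96 for 1.5 h at 27.5 °C. Buffer was then removed, cells rinsed in ice-cold ND96, lysed in SDS and counted.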

PfCRT^Ecu1110 [2] = biological target: T2, PfCRT^Ecu1110 (Plasmodium falciparum, UniProt Q9N623, A220S/I356L/K76T/N326D); assay: as above; conditions: for PfCRT-mediated [3H]CQ transport, cis-inhibition (% PfCRTEcu1110 control): PfCRTEcu1110 oocytes, background [3H]CQ accumulation subtracted, normalised to oocyte type control; for [3H]CQ transport (% PfCRTEcu1110 control), cis-inhibition, PfCRTEcu1110: PfCRT-mediated component (background subtracted), sheet title says normalised to PfCRTDd2 control, mean ± SEM, SEM
T2 sequence (Q9N623 whole entry A220S/I356L/K76T/N326D): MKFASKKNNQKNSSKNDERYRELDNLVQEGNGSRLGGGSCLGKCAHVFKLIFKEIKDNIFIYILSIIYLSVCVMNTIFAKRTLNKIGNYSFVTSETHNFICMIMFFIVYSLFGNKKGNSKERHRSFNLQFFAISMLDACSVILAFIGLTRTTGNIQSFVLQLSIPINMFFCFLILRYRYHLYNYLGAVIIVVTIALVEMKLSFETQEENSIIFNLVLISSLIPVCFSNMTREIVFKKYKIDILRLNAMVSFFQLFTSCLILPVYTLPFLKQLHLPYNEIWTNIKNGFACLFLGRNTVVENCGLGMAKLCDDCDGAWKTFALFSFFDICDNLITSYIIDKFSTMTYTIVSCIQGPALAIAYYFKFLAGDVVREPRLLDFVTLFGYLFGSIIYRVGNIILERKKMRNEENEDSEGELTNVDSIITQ
Summary of the method: as §1

PfCRT^Dd2 [3] = biological target: T1, PfCRT^Dd2; assay: cell-based; conditions: for PfCRT-mediated [3H]CQ transport, trans-stimulation (% PfCRTDd2 control): PfCRTDd2 oocytes, normalised to oocyte type control; for [3H]CQ transport (% PfCRTDd2 control), trans-stimulation, PfCRTDd2: PfCRT-mediated component (background subtracted), mean ± SEM, SEM
Summary of the method: (§2)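 Transport measured in Xenopus oocytes expressing the transporters, 1.5 h at 27.5 °C in ND96 pH 5.5 unless noted. For trans-stimulation, VF-6 injected in 25 nL ND96 at pH 5.0–7.0 or Na^+-free (choline) buffer; intracellular levels based on ~400 nL oocyte volume. Ten oocytes per treatment, ≥4 experiments.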

PfCRT^3D7 = PfCRT^3D7 (Plasmodium falciparum, UniProt Q8IBZ9); assay: cell-based; conditions: PfCRT3D7 oocytes, normalised to oocyte type control
Sequence of PfCRT^3D7 (Q8IBZ9 59-398): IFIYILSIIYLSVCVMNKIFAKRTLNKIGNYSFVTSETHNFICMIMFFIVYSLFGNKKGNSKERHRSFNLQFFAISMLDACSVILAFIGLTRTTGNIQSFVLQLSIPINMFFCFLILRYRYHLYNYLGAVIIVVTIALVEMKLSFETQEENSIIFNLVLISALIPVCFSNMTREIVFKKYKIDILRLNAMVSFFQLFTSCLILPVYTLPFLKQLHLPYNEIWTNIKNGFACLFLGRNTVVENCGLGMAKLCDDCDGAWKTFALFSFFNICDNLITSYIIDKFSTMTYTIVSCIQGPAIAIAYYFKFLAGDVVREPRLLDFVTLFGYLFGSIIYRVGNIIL
Summary of the method: as §2

PfCRT^Ecu1110 [4] = biological target: T2, PfCRT^Ecu1110; assay: cell-based; conditions: for PfCRT-mediated [3H]CQ transport, trans-stimulation (% PfCRTEcu1110 control): PfCRTEcu1110 oocytes, normalised to oocyte type control; for [3H]CQ transport (% PfCRTDd2 control), trans-stimulation, PfCRTEcu1110: PfCRT-mediated component (background subtracted), sheet title says normalised to PfCRTDd2 control, mean ± SEM, SEM
Summary of the method: as §2

[5] = [test solute]i = 5 mM (intracellular)
[6] = [test solute]i = 45 mM (intracellular; 30 mM for some solutes due to solubility)
[7] = [test solute]i = 5 mM (injected)
[8] = [test solute]i = 45 mM (30 mM for some solutes due to solubility)

T1 sequence (Q9N623 whole entry A220S/I356T/K76T/M74I/N326S/N75E/Q271E/R371I): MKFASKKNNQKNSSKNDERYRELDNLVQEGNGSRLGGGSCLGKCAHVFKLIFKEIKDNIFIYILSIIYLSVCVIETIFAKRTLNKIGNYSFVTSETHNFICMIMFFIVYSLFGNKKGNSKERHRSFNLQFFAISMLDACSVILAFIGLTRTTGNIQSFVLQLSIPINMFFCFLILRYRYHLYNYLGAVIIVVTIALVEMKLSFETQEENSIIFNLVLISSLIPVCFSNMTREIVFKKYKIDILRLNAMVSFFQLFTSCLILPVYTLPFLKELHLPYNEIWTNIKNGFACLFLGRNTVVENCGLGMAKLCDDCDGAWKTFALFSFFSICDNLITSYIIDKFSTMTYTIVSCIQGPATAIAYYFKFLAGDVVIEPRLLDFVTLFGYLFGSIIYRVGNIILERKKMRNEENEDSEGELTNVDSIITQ

Row | Substance | PfCRT-mediated [3H]CQ transport, cis-inhibition (% PfCRTDd2 control) (PfCRT^Dd2 [1]; [test solute] = 0.5 mM) | PfCRT-mediated [3H]CQ transport, cis-inhibition (% PfCRTDd2 control) (PfCRT^Dd2 [1]; [test solute] = 1 mM) | PfCRT-mediated [3H]CQ transport, cis-inhibition (% PfCRTDd2 control) (PfCRT^Dd2 [1]; [test solute] = 2 mM) | PfCRT-mediated [3H]CQ transport, cis-inhibition (% PfCRTEcu1110 control) (PfCRT^Ecu1110 [2]; [test solute] = 0.5 mM) | PfCRT-mediated [3H]CQ transport, cis-inhibition (% PfCRTEcu1110 control) (PfCRT^Ecu1110 [2]; [test solute] = 1 mM) | [3H]CQ transport (% PfCRTEcu1110 control), cis-inhibition, PfCRTEcu1110 (PfCRT^Ecu1110 [2]; [test solute] = 0.5 mM) [% PfCRTEcu1110 control] | [3H]CQ transport (% PfCRTEcu1110 control), cis-inhibition, PfCRTEcu1110 (PfCRT^Ecu1110 [2]; [test solute] = 1 mM) [% PfCRTEcu1110 control] | [3H]CQ transport (% PfCRTEcu1110 control), cis-inhibition, PfCRTEcu1110 (PfCRT^Ecu1110 [2]; [test solute] = 2 mM) [% PfCRTEcu1110 control] | PfCRT-mediated [3H]CQ transport, trans-stimulation (% PfCRTDd2 control) (PfCRT^Dd2 [3]; [5]) | PfCRT-mediated [3H]CQ transport, trans-stimulation (% PfCRTDd2 control) (PfCRT^Dd2 [3]; [6]) | [3H]CQ transport (% PfCRTDd2 control), trans-stimulation, PfCRTDd2 (PfCRT^Dd2 [3]; [7]) [% PfCRTDd2 control] | [3H]CQ transport (% PfCRTDd2 control), trans-stimulation, PfCRTDd2 (PfCRT^Dd2 [3]; [8]) [% PfCRTDd2 control] | PfCRT-mediated [3H]CQ transport, trans-stimulation (% PfCRT3D7 control) (PfCRT^3D7; [5]) | PfCRT-mediated [3H]CQ transport, trans-stimulation (% PfCRT3D7 control) (PfCRT^3D7; [6]) | PfCRT-mediated [3H]CQ transport, trans-stimulation (% PfCRTEcu1110 control) (PfCRT^Ecu1110 [4]; [5]) | PfCRT-mediated [3H]CQ transport, trans-stimulation (% PfCRTEcu1110 control) (PfCRT^Ecu1110 [4]; [6]) | [3H]CQ transport (% PfCRTDd2 control), trans-stimulation, PfCRTEcu1110 (PfCRT^Ecu1110 [4]; [7]) [% PfCRTEcu1110 control] | [3H]CQ transport (% PfCRTDd2 control), trans-stimulation, PfCRTEcu1110 (PfCRT^Ecu1110 [4]; [8]) [% PfCRTEcu1110 control] | PfCRT-mediated [3H]CQ transport, cis-inhibition (% PfCRTEcu1110 control) (PfCRT^Ecu1110 [2]; [test solute] = 2 mM)
1 | HAGEYG [HG-6] | 36 ± 2.1 | 22 ± 0.9 | 9.3 ± 0.1 | 35 ± 4.6 | 27 ± 4.1 | 11 ± 0.5 | 9.0 ± 0.05 | 4.0 ± 0.01 | 101 ± 3.3 | 98 ± 2.5 | 101 ± 3.3 | 98 ± 2.5 | 136 ± 3.6 | 190 ± 4.2 | 98 ± 2.4 | 96 ± 3.3 | 30 ± 1.5 | 29 ± 1.3 | 
2 | HFDLS [HS-5] | 20 ± 0.1 | 9 ± 0.2 | 3.2 ± 0.1 | 20 ± 1.3 |  |  | 3.0 ± 0.04 | 1.0 ± 0.06 | 100 ± 3.2 | 112 ± 1.1 | 100 ± 3.2 | 112 ± 1.1 | 139 ± 4.1 | 166 ± 3.2 | 120 ± 2.1 | 131 ± 1.8 | 36 ± 1.3 | 40 ± 1.4 | 4.3 ± 0.1

Source: publication PMC7413254 (Nature Communications, 2020)
